The values that follow come from patent US20020028809A1 (SUNTORY LIMITED, priority 1999, published 2002).

For assay [1], the target named is T1, α1β1γδ subtype of nicotinic acetylcholine receptors (Rattus norvegicus, UniProt P18916+P25108+P25109+P25110).
T1 construct: Native receptor, no construct: "Triton X100 (2% w/v) was added
Briefly: Binding assays at α1β1γδ subtype of nicotinic acetylcholine receptors ([3H]-α-bungarotoxin, rat muscle extract). The note with it: for remaining activity at 100 µM / remaining activity at 1000 µM: read-out: control % of [3H]-α-Bgt binding. An excerpt: (§1) Methods for evaluating binding capabilities of the compounds at nicotinic acetylcholine receptors are different by subtypes of receptors. Binding capabilities of the compounds at α4β2 nicotinic acetylcholine receptors are examined using rat brain membrane obtained from whole homogenized brain, and determining the inhibiting rate of the compounds against [^3H]-cytisine binding to said brain membrane. Furthermore, the binding capabilities of the compounds at α1β1γδ nicotinic acetylcholine receptors are examined using homogenized rat muscle, and determining the inhibiting rate of the compounds against [^3H]-α-bungarotoxin binding to said muscle homogenate.
Binding Assays at α1β1γδ Subtype of Nicotinic Acetylcholine Receptors
Affinity of the compounds of the present invention to α1βγδ subtype of nicotinic acetylcholine receptors was measured by the following method, which was modified method described by Garcha H. S., Thomas P., Spivak C.
(1) Preparation of Rat Skeletal Muscles Containing α1β1γδ Subtype of Nicotinic Acetylcholine Receptors
The substantially same animals described in the Biological Experiment 1 were used.
Isolation of α1β1γδ subtype of nicotinic acetylcholine receptors was performed as follow. That is, rat posterior skeletal muscles were isolated just after sacrificed by decapitation, washed with ice-cooled saline solution and then frozen at −80° C. with liquid nitrogen and stored till using. After thawing the frozen muscles, tissue was homogenized (40% w/v) with buffer solution [2.5 mM of sodium phosphate buffer (pH:7.2), 90 mM of NaCl, 2 mM of KCl, 1 mM of EDTA, 2 mM of benzamidine, 0.1 mM of benzethonium chloride, […], 0.01% of sodium azide] in Waring blender (Waring blender 34BL97; WARING PRODUCTS DIVISION DYNAMICS CORPORATION OF AMERICA) for 60 seconds. The homogenate were centrifuged under 20,000×G for 60 minutes at 4° C. The supernatant was separated and the resulting pellet was added to the same buffer (1.5 ml/g wet weight), and homogenized under the same conditions. Triton X100 (2% w/v) was added and the mixture was stirred for 3 hours at 4° C. The centrifugation at 100,000×G for 60 minutes at 4° C. yielded the rat muscle extract as supernatant. This was stored at 4° C. for up to 4 weeks, and used for binding assays at receptors.
(2) Experiments of α1β1γδSubtype of Nicotinic Acetylcholine Receptors Binding
Receptors binding experiments were performed as follow. That is, the extract of rat muscle containing 600-900 μg of protein was added to test tubes containing test compounds and incubated for 15 minutes at 37° C. Then, to this mixture was added 1 nM of [^3H]-α-bungarotoxin (α-Bgt) and further incubated for 2 hours. The samples were isolated by vacuum filtration onto Whatman GF/B filters, which were prerinsed with 0.5% polyethylenimine just prior to sample filtration, using Brandel multi manifold cell harvester. The filters were rapidly rinsed with washing solution (10 mM of KH2PO4, 150 mM of NaCl, pH 7.2, room temperature) (5×1 ml). The filters were counted in 3 ml of clearsol I (Nacalai Tesque Inc.). Determination of nonspecific binding was incubated in the presence of 1 μM α-Bgt.
In the receptor binding experiments, said buffer solution was added for adjusting the final concentration of BSA to be 0.05%.
Analyses of the experimental results were conducted by the same way as described in the Biological Experiment 1.

Assay [2] concerns the target T2, α4β2 subtype of nicotinic acetylcholine receptors (Rattus norvegicus, UniProt P09483+P12390).
T2 construct: examined using rat brain membrane obtained from whole homogenized brain; from tissue; host or cells: whole brain of Fischer-344 male rats, membrane pellet
Briefly: Binding assays at α4β2 subtype of nicotinic acetylcholine receptors ([3H]-cytisine, rat brain membrane).
Description: as §1
Binding assays at α4β2 Subtype of Nicotinic Acetylcholine Receptors
(1) Preparation of Rat Brain Membrane Containing α4β2 Subtype of Nicotinic Acetylcholine Receptors
Rats were housed in the breeding cage controlled of the room temperature at 23±1° C., and the humidity of 55±5% for 1 to 4 weeks. Rats (3 to 4 rats per a cage) were housed with lights on for 12 hours daily (from 7:00 to 19:00), and allowed free access to food and water.
Preparation of rat brain membrane containing α4β2 subtype of nicotinic acetylcholine receptors was performed as follow. That is, rat brains were isolated just after sacrificed by decapitation, washed with ice-cooled saline solution and then frozen at −80° C. with liquid nitrogen and stored till using. After thawing the frozen brain, the brain was homogenized in 10 volumes of ice-cooled buffer solution (50 mM of Tris-HCl, 120 mM of NaCl, 5 mM of KCl, 1 mM of MgCl2, 2mM of CaCl2; pH 7.4; 4° C.) using homogenizer (HG30, Hitachi Kohki Ltd.) for 30 seconds, and the homogenate were centrifuged under 1,000×G for 10 minutes at 4° C. The resulting supernatant was separated and the pellet was homogenized again with half volume of aforementioned prior buffer solution and centrifuged under the same conditions. Combined supernatant was further centrifuged under 40,000×G for 20 minutes at 4° C. The pellet was suspended in buffer solution and used for binding assays at receptors.
(2) Experiments of α4β2 Subtype of Nicotinic Acetylcholine Receptors Binding
Suspensions of membrane pellets containing 400-600 μg of protein were added to test tubes containing test compounds and [^3H]-cytisine (2 nM) in a final volume of 200 μl and incubated for 75 minutes in ice-cooled bath. The samples were isolated by vacuum filtration onto Whatman GF/B filters, which were prerinsed with 0.5% polyethylenimine just prior to sample filtration, using Brandel multi manifold cell harvester. The filters were rapidly washed with buffer solution (3×1 ml). The filters were counted in 3 ml of clearsol I (Nacalai Tesque Inc.).
Analyses of the experimental results were conducted using the Accufit Competition Program (Beckman Ltd.).

Assay [3] addresses T3, human α4β2 subtype of nicotinic acetylcholine receptors (Homo sapiens, UniProt P17787+P43681).
T3 construct: expressed in transfected cells; host or cells: Xenopus laevis oocytes injected with 50 ng each of α4 and β2 cRNA (pSP64 polyA vector)
Briefly: Agonist activities at human α4β2 subtype of nicotinic acetylcholine receptors expressed in Xenopus oocytes (membrane potential holding method). The format is cell-based. The settings on record: for Emax at 100 µM: read-out: Agonist activity: control % by response at 100 μM of the test compound. The procedure: Agonist effect in human α4β2 subtype of nicotinic acetylcholine receptors are examined by using human nicotinic acetylcholine receptors prepared in oocytes of Xenopus laevis, which is injected with cRNA from the corresponding cloning cDNA of human α4 and β2 subunits of nicotinic acetylcholine receptors, and to measure the expression of electric response by adding the test compounds to perfusion solution by means of membrane potential holding method.
Agonist Activities at Human α4β2 Subtype of Nicotinic Acetylcholine Receptors
(1) Preparation of cRNA of Human α4β2 Subtype of Nicotinic Acetylcholine Receptors
Obtained hnACh-R α4 cDNA and hnACh-R β2 cDNA were inserted to the cRNA expression vector (pSP64 polyA) having SP6 RNA promoter to construct hnACh-R α4/pSP64 polyA and hnACh-R β2/pSP64 polyA, respectively. After cutting from expression vector by restriction enzyme (EcoRI), transcription was performed by affecting SP6 RNA polymerase in the presence of cap analogues to obtain hnACh-R α4 cRNA and hnACh-R β2 cRNA, respectively.
(2) Expression of Human α4β2 Subtype Nicotinic Acetylcholine Receptors in Xenopus oocytes
Oocytes were purchased from Kitanihonseibutsukyohzai Co., Ltd., which were already enucleated from Xenopus laevis, and used in this experiment.
The oocytes were treated with collagenase (Sigma type I; 1 mg/ml) in calcium-free modified Birth's solution (88 mM of NaCl, 1 mM of KCl, 2.4 mM of NaHCO3, 0.82 mM of MgSO4, 15 mM of HEPES, pH 7.6) under gently stirring at room temperature for 90 minutes, and washed out the enzyme from the tissue. Then, oocytes were separated from ovarian follicle by tweezers, and isolated oocytes were placed in antibiotics containing modified Birth's solution (88 mM of NaCl, 1 mM of KCl, 2.4 mM of NaHCO3, 0.82 mM of MgSO4, 15 mM of HEPES, pH 7.6, and 0.1 v/v% of mixture solution containing of penicillin and streptomycin for incubation; Sigma Co.). […] In oocytes, heterogeneous quintuple [(α4)2(β2)3] was composed by translation of injected cRNAs, and ion channel receptors were constructed on cell membrane.
(3) Agonist Activities at Human α4β2 Subtype of Nicotinic Acetylcholine Receptors
Recordings of response at human α4β2 subtype of nicotinic acetylcholine receptors by means of membrane potential holding method were performed as follow. […] Test compounds were added to the perfusion solution, and recorded the peak strength of induced inward current. In order to normalize the response of test compounds, the response with acetylcholine (Ach) were recorded before and after application of the test compounds. Generally in the oocytes just after isolated, the response of intrinsic muscarinic acetylcholine receptors, which is inward electric current caused by activation of calcium dependence chloride ion channels with increase of the intracellular calcium concentration by stimulation of receptors, is observed. […] Therefore, the responses observed in oocytes with injection of hnACh-R α4 cRNA and hnACh-R β2 cRNA, i.e., the inward current induced by the intracellular influx of sodium ion according to the stimulation of receptors, would be the freshly observed responses of human α4β2 subtype nicotinic acetylcholine receptors.

Molecules are shown by their SMILES.

T1 sequence (P25108 21-457): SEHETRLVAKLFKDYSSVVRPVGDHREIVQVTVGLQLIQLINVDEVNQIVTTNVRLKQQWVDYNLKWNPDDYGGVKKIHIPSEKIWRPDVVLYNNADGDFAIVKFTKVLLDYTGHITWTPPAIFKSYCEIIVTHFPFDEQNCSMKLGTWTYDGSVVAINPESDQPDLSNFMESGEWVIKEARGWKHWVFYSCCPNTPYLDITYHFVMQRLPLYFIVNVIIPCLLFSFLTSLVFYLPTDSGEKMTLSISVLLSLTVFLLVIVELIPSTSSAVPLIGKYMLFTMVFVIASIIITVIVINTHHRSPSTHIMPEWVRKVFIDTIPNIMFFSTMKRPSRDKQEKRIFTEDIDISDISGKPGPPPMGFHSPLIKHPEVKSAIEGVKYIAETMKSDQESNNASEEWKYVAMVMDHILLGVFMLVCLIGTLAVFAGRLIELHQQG
T1 sequence (P25110 22-517): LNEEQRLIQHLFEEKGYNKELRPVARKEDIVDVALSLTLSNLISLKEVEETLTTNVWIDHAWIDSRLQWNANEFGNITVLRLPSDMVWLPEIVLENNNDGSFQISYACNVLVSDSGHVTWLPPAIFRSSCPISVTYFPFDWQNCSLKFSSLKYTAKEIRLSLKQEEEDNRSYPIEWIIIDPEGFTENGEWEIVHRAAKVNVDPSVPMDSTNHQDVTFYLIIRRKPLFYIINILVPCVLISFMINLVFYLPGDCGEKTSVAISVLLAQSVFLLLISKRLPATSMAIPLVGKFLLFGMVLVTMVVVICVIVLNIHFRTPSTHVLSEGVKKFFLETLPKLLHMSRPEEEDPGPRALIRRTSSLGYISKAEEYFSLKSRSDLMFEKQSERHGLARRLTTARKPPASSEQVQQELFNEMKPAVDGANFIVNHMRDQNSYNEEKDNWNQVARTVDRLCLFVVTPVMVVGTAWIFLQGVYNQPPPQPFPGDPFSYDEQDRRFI
T1 sequence (P25109 24-501): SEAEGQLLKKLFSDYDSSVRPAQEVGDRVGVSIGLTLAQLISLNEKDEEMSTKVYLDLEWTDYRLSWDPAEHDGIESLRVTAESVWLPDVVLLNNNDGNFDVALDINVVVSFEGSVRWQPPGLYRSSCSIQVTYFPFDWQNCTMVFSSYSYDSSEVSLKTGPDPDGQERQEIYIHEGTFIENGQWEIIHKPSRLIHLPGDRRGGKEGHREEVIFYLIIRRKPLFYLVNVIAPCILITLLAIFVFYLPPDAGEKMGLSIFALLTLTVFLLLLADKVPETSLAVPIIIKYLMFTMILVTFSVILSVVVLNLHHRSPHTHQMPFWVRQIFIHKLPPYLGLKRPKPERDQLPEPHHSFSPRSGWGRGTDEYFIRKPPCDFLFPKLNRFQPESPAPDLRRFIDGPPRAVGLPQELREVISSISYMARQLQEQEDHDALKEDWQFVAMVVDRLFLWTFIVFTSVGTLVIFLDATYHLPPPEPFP
T2 sequence (P09483 31-630): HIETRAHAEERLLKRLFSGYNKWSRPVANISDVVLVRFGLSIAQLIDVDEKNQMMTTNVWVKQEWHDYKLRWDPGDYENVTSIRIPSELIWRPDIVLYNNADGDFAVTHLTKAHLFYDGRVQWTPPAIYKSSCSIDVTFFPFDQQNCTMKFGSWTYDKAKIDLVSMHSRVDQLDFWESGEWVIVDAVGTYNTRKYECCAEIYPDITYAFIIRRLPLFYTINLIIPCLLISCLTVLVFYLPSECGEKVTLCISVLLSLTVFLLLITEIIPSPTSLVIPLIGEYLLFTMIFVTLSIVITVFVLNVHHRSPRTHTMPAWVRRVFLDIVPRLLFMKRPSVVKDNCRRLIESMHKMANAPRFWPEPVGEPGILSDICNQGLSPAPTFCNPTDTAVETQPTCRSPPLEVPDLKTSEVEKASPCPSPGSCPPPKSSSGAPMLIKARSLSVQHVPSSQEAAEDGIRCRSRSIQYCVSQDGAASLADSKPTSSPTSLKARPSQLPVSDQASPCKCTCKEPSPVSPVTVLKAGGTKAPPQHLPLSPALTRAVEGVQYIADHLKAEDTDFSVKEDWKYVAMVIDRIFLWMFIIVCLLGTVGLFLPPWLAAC
T2 sequence (P12390 25-500): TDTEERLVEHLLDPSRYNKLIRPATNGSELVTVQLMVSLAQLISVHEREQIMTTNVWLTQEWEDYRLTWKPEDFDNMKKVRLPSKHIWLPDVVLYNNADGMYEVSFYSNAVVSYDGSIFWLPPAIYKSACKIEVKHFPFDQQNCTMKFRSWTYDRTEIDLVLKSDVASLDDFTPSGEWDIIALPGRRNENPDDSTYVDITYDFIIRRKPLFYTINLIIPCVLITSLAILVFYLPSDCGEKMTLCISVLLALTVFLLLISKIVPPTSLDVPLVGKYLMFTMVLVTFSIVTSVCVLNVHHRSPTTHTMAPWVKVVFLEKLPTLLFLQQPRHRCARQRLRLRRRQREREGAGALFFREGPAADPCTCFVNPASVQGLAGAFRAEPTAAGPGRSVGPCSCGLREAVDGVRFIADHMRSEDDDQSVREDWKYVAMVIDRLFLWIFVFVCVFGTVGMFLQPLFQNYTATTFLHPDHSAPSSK
T3 sequence (P43681 29-627 limits assumed): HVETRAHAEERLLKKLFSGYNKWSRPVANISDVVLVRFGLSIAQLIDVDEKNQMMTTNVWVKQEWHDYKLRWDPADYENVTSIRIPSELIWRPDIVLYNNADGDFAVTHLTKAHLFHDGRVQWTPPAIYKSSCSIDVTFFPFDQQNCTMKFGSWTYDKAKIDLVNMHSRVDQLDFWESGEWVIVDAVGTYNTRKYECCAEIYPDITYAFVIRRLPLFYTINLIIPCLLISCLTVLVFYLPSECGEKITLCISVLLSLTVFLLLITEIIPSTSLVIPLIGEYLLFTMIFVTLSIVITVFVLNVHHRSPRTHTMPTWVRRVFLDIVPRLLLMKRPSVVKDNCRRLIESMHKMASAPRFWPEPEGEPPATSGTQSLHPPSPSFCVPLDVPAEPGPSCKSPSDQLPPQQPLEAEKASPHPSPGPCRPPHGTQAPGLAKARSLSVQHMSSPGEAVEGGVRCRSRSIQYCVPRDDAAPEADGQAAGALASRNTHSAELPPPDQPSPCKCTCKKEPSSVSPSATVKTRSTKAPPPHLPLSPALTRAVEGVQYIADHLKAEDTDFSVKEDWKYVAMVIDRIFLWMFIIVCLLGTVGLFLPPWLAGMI
T3 sequence (P17787 26-502): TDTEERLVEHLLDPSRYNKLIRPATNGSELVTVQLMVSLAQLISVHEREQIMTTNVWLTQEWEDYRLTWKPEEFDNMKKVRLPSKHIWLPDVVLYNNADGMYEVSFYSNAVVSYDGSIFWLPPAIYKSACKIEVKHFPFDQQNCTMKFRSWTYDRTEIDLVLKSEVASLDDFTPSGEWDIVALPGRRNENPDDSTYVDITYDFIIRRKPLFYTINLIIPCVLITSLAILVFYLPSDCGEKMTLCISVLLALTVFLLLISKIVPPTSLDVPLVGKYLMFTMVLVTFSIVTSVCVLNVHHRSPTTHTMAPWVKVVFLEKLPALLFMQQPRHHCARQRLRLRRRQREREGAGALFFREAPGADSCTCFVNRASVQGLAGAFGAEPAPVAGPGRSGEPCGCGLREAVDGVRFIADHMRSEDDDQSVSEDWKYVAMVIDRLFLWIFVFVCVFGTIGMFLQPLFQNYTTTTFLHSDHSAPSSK

With `N=c1sccn1Cc1cccnc1` [Compound 1, 2-imino-3-(3-pyridyl)methyl-2,3-dihydrothiazole], the inhibition constant Ki in assay [1] amounted to 4.9 µM; in assay [2], 0.00484 µM. For the same molecule, the Emax at 100 µM in assay [3] amounted to 20%.

For the molecule `N=c1ccc(Cl)nn1Cc1ccc(Cl)nc1` [Compound 6, 6-chloro-2-(6-chloro-3-pyridyl)methyl-3-imino-2,3-dihydropyridazine], in assay [1], the remaining activity at 100 µM was determined as 44% and the remaining activity at 1000 µM came to 15%. This molecule showed a Ki in assay [2] of 0.015 µM. The same molecule had an EC50 in assay [3] of 86 µM.

For `N=C1OCCCN1Cc1ccc(Cl)nc1` [Compound 16, 3-(6-chloro-3-pyridyl)methyl-2-imino-3,4,5,6-tetrahydro-2H-1,3-oxazine], in assay [1], the remaining activity at 100 µM came out at 14% and the remaining activity at 1000 µM was -2%. In assay [2], this molecule came in with a Ki of 0.00065 µM. The EC50 in assay [3] stood at 1.5 µM.

Regarding `Cc1csc(=N)n1Cc1ccc(Br)nc1` [Compound 19, 3-(6-bromo-3-pyridyl)methyl-2-imino-4-methyl-2,3-dihydrothiazole], the Ki was determined as 11.7 µM in assay [1] and 0.0105 µM in assay [2]. The Emax at 100 µM in assay [3] came to 3%.

With `N=C1OCCN1Cc1ccc(Cl)nc1` [Compound 28, 3-(6-chloro-3-pyridyl)methyl-2-iminooxazolidine], the Ki stood at 39.8 µM in assay [1] and 0.00277 µM in assay [2]. This molecule came in with an EC50 in assay [3] of 15.5 µM.

For the molecule `NC1=NCCCN1Cc1ccc(Cl)nc1` [Compound 29, 1-(6-Chloro-3-pyridyl)methyl-2-imino-1,2,3,4,5,6-hexahydropyrimidine], the Ki in assay [1] came to 7.02 µM; in assay [2] it was 0.00025 µM. Moreover, a half-maximal response in assay [3] (EC50) required 0.5 µM.

Consider `Nc1nccn1Cc1cnc(Cl)s1` [Compound 50, 2-amino-1-(2-chloro-5-thiazolyl)methylimidazole], for which the Ki turned out to be 818 µM in assay [1] and 0.0271 µM in assay [2]. The half-maximal effective concentration (EC50) in assay [3] was 92.4 µM.

Turning to `Cc1ccc(Cn2ccnc2N)cn1` [Compound 56, 2-amino-i-(6-methyl-3-pyridyl)methylimidazole], the inhibition constant Ki in assay [1] came to 545 µM; in assay [2], 0.165 µM. The Emax at 100 µM in assay [3] amounted to 11%.

Regarding `N=c1sccn1Cc1ccc(Cl)cc1` [Compound 57, 3-(4-chlorobenzyl)-2-imino-2,3-dihydrothiazole], the values for the Ki in assay [1] and in assay [2] were 13 µM and 0.0119 µM, respectively. For the same molecule, the Emax at 100 µM in assay [3] stood at 23%.

For the molecule `Nc1nccn1Cc1c[nH]c2ncccc12` [Compound 59, 2-amino-i-(7-aza-3-indolyl)methylimidazole], the values for the inhibition constant (Ki) in assay [1] and in assay [2] were 1230 µM and 0.0502 µM, respectively. For the same molecule, in assay [3], the Emax at 100 µM stood at 21%.

With `N=c1sccn1Cc1ccc([N+](=O)[O-])cc1` [Compound 62, 2-imino-3-(4-nitrobenzyl)-2,3-dihydrothiazole], the values for the Ki in assay [1] and in assay [2] were 79.8 µM and 0.0291 µM, respectively. This molecule gave an EC50 in assay [3] of 325 µM.

A word on the Ki: it is the dissociation constant of the complex between target and ligand, obtained from inhibition or displacement. The term EC50 denotes the concentration at which the effect is half-maximal. The low end stands for a more potent agent, the high end for a less potent agent.
